# Source: ChEMBL document CHEMBL1152485, “Comparative chemometric modeling of cytochrome 3A4 inhibitory activity of structurally diverse compounds using stepwise MLR, FA-MLR, PLS, GFA, G/PLS and ANN techniques” (Eur J Med Chem, 2009)
# Biological target: Cytochrome P450 3A4 (Homo sapiens, UniProt P08684)
# Sequence (P08684 whole entry): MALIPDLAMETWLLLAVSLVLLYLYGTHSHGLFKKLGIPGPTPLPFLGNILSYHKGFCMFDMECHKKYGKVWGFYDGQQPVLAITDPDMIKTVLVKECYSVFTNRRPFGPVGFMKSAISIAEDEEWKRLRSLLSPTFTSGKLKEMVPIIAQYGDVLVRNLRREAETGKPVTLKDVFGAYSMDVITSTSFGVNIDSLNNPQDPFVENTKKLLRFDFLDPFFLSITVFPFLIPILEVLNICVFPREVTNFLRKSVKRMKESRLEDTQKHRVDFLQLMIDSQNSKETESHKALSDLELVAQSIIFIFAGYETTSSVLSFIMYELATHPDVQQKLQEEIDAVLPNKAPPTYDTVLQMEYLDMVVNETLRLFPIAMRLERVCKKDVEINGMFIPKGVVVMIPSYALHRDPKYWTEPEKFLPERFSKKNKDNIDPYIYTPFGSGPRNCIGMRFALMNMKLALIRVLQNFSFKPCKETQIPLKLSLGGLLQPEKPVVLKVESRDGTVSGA
row,SMILES,IC50 [µM]
1,CC(C)(C(=O)c1cccnc1)c1cccnc1 [METYRAPONE],4.93
2,CCCC1COC(Cn2cncn2)(c2ccc(Cl)cc2Cl)O1 (stereo not drawn) [PROPICONAZOLE],1.04
3,CC(C)(C)C(=O)C(Oc1ccc(Cl)cc1)n1cncn1 (stereo not drawn) [TRIADIMEFON],9.29
